The values below come from ChEMBL document CHEMBL1201862, “PubChem BioAssay data set” (2004).

Activity calls are given as the source filed them. Bounds are passed on as bounds.

The target in one assay is Large T antigen (Simian virus 40, UniProt P03070). In kind it is functional, Betapolyomavirus macacae.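 Further: Confirmatory-stage PubChem screen for compounds that inhibit SV40 T antigen.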
Another assay has as its target Prothrombin (Bos taurus, UniProt P00735). Kind of assay: thrombin protease inhibitors – biochemical, fluorescence polarization, uHTS hits, dose response (AID 602369). It counts as functional. A general note: In fluorescence polarisation assays a small probe gives low polarisation when free and higher when bound to something large.
For assay [1], the target named is T1, Alkaline phosphatase, tissue-nonspecific isozyme (Homo sapiens, UniProt P05186).
T1 sequence (P05186 whole entry): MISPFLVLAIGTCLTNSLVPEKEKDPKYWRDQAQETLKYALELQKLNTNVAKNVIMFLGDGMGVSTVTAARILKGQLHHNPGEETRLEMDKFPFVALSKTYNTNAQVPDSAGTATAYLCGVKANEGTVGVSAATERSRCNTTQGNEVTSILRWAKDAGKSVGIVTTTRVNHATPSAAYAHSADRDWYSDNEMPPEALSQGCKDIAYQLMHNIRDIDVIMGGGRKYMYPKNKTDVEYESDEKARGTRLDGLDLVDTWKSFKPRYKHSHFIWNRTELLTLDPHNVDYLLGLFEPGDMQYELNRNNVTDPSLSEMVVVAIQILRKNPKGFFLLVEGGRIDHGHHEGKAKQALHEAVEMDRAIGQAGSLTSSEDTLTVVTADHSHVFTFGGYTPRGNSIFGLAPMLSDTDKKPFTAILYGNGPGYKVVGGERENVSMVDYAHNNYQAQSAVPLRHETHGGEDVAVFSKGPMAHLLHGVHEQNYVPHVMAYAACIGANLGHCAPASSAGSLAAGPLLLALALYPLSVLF
Nature of the assay: TNAP enzyme inhibition by screening hits, dose response, selectivity assay for mouse IAP inhibitor project, biochemical, human TNAP, uHTS hits (AID 488906). It counts as functional.

Assay [2] addresses T2, Intestinal-type alkaline phosphatase (Homo sapiens, UniProt P09923). Nature of the assay: activation of human intestinal alkaline phosphatase – biochemical, dose response (AID 488873). It counts as functional.
In assay [3] the target is 1-phosphatidylinositol 4,5-bisphosphate phosphodiesterase gamma-1 (Homo sapiens, UniProt P19174). Nature of the assay: Counterscreen for inhibitors of phospholipase C isozymes (PLC-B3): Fluorescence-based biochemical high throughput dose response assay to identify inhibitors of phospholipase C isozymes (PLC-gamma1).
Another assay deals with T3, ORF 73 (Human herpesvirus 8, UniProt O40947).
T3 sequence (O40947 whole entry): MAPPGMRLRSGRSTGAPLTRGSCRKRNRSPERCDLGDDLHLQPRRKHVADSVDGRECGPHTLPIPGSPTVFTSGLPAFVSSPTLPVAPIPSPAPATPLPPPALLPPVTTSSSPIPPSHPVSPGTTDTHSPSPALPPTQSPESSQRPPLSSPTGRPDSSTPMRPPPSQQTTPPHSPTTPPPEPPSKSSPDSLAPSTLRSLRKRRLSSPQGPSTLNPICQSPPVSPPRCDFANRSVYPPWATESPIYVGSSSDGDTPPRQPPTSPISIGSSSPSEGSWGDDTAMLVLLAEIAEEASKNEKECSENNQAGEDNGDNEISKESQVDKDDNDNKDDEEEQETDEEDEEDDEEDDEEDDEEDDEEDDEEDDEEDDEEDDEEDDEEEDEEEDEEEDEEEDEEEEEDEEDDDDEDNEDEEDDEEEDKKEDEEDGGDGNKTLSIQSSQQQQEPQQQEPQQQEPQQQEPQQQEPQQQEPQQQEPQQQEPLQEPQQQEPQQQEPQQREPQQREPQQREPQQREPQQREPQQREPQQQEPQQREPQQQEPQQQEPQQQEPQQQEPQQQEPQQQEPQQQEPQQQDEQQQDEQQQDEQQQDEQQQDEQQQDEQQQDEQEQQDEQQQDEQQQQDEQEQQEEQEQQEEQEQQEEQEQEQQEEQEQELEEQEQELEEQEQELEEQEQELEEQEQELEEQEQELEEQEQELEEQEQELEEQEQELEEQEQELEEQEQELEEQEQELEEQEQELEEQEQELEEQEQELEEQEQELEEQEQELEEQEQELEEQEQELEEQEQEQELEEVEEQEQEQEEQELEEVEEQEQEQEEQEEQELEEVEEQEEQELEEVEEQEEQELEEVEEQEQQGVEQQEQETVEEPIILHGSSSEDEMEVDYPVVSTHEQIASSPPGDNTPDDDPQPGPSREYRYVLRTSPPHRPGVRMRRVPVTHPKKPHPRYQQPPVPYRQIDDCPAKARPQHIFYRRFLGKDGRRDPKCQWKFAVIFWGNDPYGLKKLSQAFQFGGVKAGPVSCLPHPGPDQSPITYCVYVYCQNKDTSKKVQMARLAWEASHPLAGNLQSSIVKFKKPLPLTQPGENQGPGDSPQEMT
Nature of the assay: KSHV LANA DNA-binding disruption – biochemical, fluorescence polarization, cherry-picked samples, dose response (AID 504725).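 Further: fluorescence polarization of a labeled DNA duplex reporting LANA DNA binding; potency is for inhibitors that block LANA binding to the DNA.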 On the set-up: species or system Human gammaherpesvirus 8.

Assay [4] addresses 72 kDa type IV collagenase (Homo sapiens, UniProt P08253). Nature of the assay: Dose Response validation of uHTS RPN11 inhibitor hits using a MMP-2 Fluorescence assay. It counts as functional.
The target of assay [5] is 1-phosphatidylinositol 4,5-bisphosphate phosphodiesterase beta-3 (Homo sapiens, UniProt Q01970). Nature of the assay: Fluorescence-based biochemical high throughput dose response assay to identify inhibitors of phospholipase C isozymes (PLC-B3).
A further assay addresses T4, Cysteine protease ATG4B (Homo sapiens, UniProt Q9Y4P1).
T4 sequence (Q9Y4P1 whole entry): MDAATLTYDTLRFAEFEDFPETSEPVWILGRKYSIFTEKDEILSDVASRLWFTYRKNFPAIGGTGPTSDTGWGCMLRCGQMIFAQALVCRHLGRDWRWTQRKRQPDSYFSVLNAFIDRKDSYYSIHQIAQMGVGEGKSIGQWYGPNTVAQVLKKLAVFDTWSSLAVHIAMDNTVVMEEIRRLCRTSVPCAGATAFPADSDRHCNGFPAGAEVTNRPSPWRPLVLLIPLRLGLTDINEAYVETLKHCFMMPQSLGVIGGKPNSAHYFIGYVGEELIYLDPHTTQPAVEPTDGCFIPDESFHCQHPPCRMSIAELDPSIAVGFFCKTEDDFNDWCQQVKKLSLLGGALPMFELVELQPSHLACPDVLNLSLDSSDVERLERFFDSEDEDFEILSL
In kind it is functional.

Another assay has as its target Phospholipase A2 (Homo sapiens, UniProt P04054). It counts as functional.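 Further: confirmatory dose-response counterscreen on phospholipase A2, testing hits that came from an ultra-high-throughput screen for ATG4B inhibitors.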
For assay [6], the target named is 26S proteasome non-ATPase regulatory subunit 14 (Homo sapiens, UniProt O00487). Nature of the assay: inhibition of proteasome subunit RPN11 – biochemical, fluorescence polarization, uHTS hits, confirmation (AID 602368). It counts as functional.
In assay [7] the target is T5, Intestinal-type alkaline phosphatase (Mus musculus, UniProt P24822). Nature of the assay: PubChem AID 488785. It counts as functional.
T5 sequence (P24822 whole entry): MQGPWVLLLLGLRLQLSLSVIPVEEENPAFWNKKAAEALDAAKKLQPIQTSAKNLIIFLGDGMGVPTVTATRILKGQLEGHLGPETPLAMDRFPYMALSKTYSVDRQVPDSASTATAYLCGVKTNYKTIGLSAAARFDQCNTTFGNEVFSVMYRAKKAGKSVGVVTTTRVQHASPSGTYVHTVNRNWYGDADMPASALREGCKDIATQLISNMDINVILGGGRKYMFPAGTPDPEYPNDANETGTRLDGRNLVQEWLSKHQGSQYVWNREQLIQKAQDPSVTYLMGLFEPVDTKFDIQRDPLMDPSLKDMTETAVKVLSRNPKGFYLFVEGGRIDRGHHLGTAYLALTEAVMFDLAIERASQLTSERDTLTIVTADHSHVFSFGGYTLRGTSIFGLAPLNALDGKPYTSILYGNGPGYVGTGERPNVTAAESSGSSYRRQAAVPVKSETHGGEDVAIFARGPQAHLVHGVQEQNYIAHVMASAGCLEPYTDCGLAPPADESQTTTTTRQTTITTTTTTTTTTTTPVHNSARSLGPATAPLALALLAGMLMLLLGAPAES
For assay [8], the target named is T2, Intestinal-type alkaline phosphatase. Kind of assay: Dose Response confirmation of uHTS hits from a small molecule inhibitors of human intestinal alkaline phosphatase via a luminescent assay. [Related pubchem assays (depositor defined):AID2544, AID2574]. It counts as functional.
The target is the same in assay [9]. Nature of the assay: human intestinal alkaline phosphatase activators, dose response, biochemical, luminescence, uHTS hits (AID 463120). In kind it is functional.
Assay [10] addresses T5, Intestinal-type alkaline phosphatase. Kind of assay: mouse intestinal alkaline phosphatase activators, dose response, biochemical, luminescence, uHTS hits (AID 488783). It counts as functional.
Assay [11] addresses T1, Alkaline phosphatase, tissue-nonspecific isozyme. Kind of assay: activation of tissue-nonspecific alkaline phosphatase – biochemical, TNAP isozyme, mouse IAP uHTS hits, selectivity assay for mouse IAP activator project, dose response (AID 488880). It counts as functional.
The target in the next assay is Ion channel NompC (Danio rerio, UniProt Q7T1G6). Nature of the assay: Dose response cell-based high-throughput screening assay for agonists of the transient receptor potential channel N1 (TRPN1). [Related pubchem assays (depositor defined):AID1424, AID1448]. It counts as functional.
Ion channel NompC, sequence (Q7T1G6 whole entry): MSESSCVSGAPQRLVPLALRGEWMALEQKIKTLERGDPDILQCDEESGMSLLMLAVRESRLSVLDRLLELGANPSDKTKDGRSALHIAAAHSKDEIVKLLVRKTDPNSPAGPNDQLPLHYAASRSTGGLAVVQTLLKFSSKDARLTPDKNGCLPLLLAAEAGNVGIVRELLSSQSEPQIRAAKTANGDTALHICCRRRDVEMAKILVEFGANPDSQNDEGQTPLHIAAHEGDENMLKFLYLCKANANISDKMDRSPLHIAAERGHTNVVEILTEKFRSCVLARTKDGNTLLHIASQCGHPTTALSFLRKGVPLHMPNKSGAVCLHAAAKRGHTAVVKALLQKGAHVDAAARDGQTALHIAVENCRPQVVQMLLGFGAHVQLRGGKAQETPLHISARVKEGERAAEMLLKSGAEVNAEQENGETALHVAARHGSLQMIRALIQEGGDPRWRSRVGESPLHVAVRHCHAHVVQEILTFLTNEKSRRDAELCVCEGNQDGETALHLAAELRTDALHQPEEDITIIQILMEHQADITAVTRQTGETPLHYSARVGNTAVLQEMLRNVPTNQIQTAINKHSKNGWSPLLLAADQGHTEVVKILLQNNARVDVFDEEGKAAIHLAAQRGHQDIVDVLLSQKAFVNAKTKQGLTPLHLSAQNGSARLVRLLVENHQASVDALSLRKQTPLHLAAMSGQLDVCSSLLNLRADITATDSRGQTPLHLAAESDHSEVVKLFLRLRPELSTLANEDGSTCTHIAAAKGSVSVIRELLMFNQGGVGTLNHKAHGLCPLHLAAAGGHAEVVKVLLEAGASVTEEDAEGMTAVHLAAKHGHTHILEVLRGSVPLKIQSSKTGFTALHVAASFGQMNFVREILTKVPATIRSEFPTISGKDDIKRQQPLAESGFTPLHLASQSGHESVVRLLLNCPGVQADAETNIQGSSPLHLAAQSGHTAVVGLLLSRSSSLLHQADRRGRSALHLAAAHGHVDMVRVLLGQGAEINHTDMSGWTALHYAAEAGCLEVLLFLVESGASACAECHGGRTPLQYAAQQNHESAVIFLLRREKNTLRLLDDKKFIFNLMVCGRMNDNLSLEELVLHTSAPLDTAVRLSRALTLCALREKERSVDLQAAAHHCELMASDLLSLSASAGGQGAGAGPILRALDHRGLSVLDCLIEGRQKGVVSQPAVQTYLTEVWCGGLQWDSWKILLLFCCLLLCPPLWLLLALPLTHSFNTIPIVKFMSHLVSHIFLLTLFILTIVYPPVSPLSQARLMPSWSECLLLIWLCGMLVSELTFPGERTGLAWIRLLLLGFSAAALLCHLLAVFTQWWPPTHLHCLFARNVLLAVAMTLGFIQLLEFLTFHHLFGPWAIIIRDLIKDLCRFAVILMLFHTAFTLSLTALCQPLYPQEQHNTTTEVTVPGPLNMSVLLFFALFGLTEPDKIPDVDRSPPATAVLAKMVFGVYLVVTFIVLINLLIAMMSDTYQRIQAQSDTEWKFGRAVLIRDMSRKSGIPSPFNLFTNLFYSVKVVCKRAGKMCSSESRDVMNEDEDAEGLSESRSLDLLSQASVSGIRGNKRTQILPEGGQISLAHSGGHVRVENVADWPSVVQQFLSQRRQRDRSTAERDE
The target in a further assay is T6, Mucolipin-3 (Homo sapiens, UniProt Q8TDD5).
T6 sequence (Q8TDD5 whole entry): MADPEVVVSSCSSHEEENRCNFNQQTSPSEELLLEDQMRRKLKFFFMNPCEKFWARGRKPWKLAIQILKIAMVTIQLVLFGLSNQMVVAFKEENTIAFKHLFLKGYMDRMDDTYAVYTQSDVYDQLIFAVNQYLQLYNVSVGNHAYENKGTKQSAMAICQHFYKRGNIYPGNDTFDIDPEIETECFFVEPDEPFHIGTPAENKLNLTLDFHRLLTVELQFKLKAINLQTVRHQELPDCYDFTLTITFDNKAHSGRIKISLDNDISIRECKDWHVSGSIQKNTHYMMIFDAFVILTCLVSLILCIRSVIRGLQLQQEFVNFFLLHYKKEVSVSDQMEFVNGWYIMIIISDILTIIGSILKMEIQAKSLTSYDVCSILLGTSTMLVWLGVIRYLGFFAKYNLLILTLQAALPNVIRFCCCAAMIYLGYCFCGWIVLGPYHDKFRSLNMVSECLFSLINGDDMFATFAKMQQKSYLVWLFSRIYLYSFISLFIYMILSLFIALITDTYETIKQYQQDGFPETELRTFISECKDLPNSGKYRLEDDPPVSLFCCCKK
Nature of the assay: Fluorescence counterscreen assay for […] agonists: dose response cell-based high-throughput screening assay to identify agonists of the transient receptor potential channel ML3 (TRPML3). [Related pubchem assays: 1424, 1448 ]. In kind it is functional.

Assay [12] can be described thus: inhibition of ADAM10 peptide cleavage – biochemical, FRET peptide substrate, recombinant human ADAM10, selectivity assay for ADAM17 exosite inhibitor project, dose response (AID 743259).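 Further: ADAM10 enzyme cleaving a FRET peptide substrate.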
Assay [13] has as its target Disintegrin and metalloproteinase domain-containing protein 17 (Homo sapiens, UniProt P78536). Nature of the assay: exosite inhibitors of ADAM17, dose response, biochemical (AID 743260).
A further assay has as its target Troponin, cardiac muscle (Homo sapiens, UniProt P19429+P45379+P63316). Nature of the assay: Fluorescence-based biochemical high throughput dose response assay for activators of the calcium sensitivity of cardiac Regulated Thin Filaments (RTF). [Related pubchem assays (depositor defined):AID493008, AID493018, AID504382, AID504383]. In kind it is protein-complex assay.

For assay [14], the target named is Voltage-dependent T-type calcium channel subunit alpha-1H (Homo sapiens, UniProt O95180). Nature of the assay: human CACNA1H calcium influx blockade – cell-based, synthetic library set 2, HEK293 HH8, Fluo-4, SAR follow-up (AID 493023). In kind it is functional.
Voltage-dependent T-type calcium channel subunit alpha-1H, sequence (O95180 whole entry): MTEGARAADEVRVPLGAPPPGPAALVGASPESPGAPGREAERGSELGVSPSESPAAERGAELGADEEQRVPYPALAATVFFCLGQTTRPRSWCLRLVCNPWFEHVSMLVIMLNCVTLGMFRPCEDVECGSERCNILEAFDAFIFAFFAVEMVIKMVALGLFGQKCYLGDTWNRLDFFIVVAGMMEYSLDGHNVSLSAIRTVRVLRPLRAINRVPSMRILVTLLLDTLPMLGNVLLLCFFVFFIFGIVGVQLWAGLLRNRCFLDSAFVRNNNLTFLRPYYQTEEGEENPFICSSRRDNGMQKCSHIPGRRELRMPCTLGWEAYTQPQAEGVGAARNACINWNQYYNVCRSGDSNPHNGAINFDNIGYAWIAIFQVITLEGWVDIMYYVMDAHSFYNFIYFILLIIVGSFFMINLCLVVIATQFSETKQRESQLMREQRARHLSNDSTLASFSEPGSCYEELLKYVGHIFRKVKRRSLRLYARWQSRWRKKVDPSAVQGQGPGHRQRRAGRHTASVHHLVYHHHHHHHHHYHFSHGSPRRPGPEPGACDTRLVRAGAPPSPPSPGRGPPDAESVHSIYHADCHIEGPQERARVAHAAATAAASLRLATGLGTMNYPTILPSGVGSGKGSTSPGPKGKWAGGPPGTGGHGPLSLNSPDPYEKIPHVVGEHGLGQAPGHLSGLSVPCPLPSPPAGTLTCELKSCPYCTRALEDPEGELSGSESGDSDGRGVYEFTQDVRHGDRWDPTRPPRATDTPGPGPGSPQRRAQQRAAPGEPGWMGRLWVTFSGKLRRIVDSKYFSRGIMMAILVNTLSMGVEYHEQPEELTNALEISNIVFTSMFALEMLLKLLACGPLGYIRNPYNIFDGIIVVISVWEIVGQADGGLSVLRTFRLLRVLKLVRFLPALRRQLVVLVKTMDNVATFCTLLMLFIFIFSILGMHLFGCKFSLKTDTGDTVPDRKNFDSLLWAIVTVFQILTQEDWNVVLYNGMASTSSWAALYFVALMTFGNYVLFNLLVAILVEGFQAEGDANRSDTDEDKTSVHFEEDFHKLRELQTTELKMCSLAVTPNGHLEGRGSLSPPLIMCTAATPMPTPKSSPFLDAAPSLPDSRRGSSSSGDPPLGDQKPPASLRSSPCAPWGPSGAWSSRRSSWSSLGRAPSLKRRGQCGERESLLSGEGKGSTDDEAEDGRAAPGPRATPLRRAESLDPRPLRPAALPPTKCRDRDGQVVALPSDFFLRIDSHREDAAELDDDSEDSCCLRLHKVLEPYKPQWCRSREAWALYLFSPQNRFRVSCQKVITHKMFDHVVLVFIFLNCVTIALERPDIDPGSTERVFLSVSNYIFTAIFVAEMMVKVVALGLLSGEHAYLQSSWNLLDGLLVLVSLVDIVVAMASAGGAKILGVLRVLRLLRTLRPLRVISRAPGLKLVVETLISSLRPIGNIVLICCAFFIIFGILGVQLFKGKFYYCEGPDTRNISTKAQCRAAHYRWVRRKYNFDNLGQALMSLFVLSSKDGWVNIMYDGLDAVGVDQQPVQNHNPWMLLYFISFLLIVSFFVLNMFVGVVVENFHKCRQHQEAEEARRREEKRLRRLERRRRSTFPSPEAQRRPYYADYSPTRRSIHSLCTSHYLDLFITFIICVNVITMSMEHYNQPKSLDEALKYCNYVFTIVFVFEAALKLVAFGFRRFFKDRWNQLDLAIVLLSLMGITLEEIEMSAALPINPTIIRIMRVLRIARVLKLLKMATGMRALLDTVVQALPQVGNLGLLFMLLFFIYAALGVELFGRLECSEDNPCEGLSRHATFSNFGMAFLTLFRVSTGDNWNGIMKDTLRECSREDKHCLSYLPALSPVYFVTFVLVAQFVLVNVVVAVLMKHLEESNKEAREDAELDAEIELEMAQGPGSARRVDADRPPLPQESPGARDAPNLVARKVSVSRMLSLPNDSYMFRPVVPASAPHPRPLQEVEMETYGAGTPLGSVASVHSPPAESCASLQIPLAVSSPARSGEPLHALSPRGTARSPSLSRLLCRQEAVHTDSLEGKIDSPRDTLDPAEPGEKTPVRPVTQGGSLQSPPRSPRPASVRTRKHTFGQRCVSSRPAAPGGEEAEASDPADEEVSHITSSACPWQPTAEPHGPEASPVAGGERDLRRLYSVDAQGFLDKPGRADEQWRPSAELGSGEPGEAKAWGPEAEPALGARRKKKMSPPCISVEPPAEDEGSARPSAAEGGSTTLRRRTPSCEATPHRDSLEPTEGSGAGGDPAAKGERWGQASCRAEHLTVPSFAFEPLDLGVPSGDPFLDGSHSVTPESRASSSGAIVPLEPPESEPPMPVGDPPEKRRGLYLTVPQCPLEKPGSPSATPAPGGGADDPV
Another assay has as its system Streptococcus. Nature of the assay: GAS UMAA2166 growth inhibition – luminescence, BacTiterGlo, counter-screen for streptokinase expression inhibitor project, dose response (AID 1915).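 Further: potency for reduction of bacterial viability or growth.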 In kind it is functional, organism-based. Background: A counterscreen serves to expose hits that act by an unwanted route or on another target.
Assay [15] concerns Streptococcus sp. 'group A'. Kind of assay: Streptococcus pyogenes SK(-)GAS viability under kanamycin – luminescence, BacTiterGlo, confirmation, counter-screen for streptokinase expression inhibitor project, dose response (AID 1900). In kind it is functional, organism-based.

T2 sequence (P09923 whole entry): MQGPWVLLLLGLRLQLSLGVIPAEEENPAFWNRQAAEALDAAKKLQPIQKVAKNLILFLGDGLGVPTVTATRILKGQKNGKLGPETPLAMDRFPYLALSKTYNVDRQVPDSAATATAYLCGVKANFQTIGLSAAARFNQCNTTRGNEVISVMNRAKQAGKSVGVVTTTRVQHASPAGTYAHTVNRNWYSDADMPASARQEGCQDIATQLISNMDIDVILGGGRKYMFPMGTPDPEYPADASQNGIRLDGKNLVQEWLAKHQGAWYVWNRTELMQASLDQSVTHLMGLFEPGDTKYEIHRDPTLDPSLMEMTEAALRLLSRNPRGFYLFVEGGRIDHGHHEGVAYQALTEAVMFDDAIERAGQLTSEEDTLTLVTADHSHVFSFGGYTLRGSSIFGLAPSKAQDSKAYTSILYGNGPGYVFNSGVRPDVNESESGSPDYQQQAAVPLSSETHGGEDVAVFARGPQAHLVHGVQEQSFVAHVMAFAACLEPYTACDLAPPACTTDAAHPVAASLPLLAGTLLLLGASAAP

For the compound `O=C(CN1C(=O)/C(=C/c2ccco2)SC1=S)Nc1ccc(C(=O)O)c(O)c1`, the IC50 (in general, the concentration at which inhibition is half-maximal) at Large T antigen is 76.9 µM (active); at Prothrombin, 45.8 µM (active); in assay [1], > 100 µM (inactive); in [3], > 122 µM (inactive); in assay [4], 2.32 µM (active); in [5] it was > 122 µM (inactive). Moreover, the IC50 is 6.89 µM (active) on Cysteine protease ATG4B, 16.8 µM (active) at Phospholipase A2, 19.4 µM (active) in assay [6] and 9.42 µM (active) in assay [7]. Moreover, the EC50 (commonly the concentration that produces a half-maximal response) in assay [2] is > 100 µM (inactive). In addition, at ORF 73, the AC50 (as a rule, the concentration at which the activity in the assay is half-maximal) is 76.1 µM (active).
Consider `CC(C)CCNC(=O)C1CCN(C(=O)N(C)C)CC1`, for which the IC50 in assay [8] was > 100 µM (inactive). Further, the EC50 in assay [9] was > 100 µM (inactive).
`COc1ccc(/N=C2\SC(C(N)=O)CC(=O)N2CCc2ccc(OC)c(OC)c2)cc1` (stereo not drawn): the EC50 in assay [2] was 59.6 µM (active); in assay [10] it was 13.3 µM (active); in assay [11] it was 48.9 µM (active).
For the compound `CC(C)S(=O)(=O)c1csc(NC(=O)Nc2ccc(Cl)cc2)c1`, the figures for the EC50 at Ion channel NompC and on Mucolipin-3 were > 29.9 µM (inactive) and > 29.9 µM (not active), respectively.
On to `CCC(C(=O)O)N1C(=O)/C(=C/c2cccn2C)SC1=S` (stereo not drawn), for which the IC50 was 12.5 µM (inactive) in assay [12] and > 23.2 µM (inactive) in [13]. Also, the EC50 at Troponin, cardiac muscle was 14.4 µM (inactive).
On to `O=C(N[C@H]1CCCN(Cc2ccccc2)C1)c1ccc(Cl)cc1Cl`, for which the 50% effective concentration (EC50) in [14] was 10 µM (active).
On the same count and under the same terms, the value for `CC(C)(C)CCN1CCC[C@H](NC(=O)c2cc(Cl)cc(Cl)c2)C1` was 10 µM (active).
For `CCOc1cc(/C=C(\C#N)c2nc(-c3cccs3)c(NC(C)=O)s2)ccc1O`, the EC50 is 2.02 µM (active) with Streptococcus, 628 nM (active) in [15], 13.4 µM (inactive) at Ion channel NompC and > 29.9 µM (not active) at Mucolipin-3.
